According to US7268150B2, “2-cyano-4-fluoropyrrolidine derivative or its salt” (Yamanouchi Pharmaceutical Co., Ltd., priority 2002, dated 2007):
Read-outs that look alike come from different tables or passages of the source.

Experiments:
DPP-IV = target: T1, DPP-IV (Homo sapiens, UniProt P27487); experiment: Test for determination of DPP-IV inhibiting activity (Gly-Pro-AMC cleavage by human plasma); assay type: biochemical
T1 construct: added was 5 μL of plasma collected from healthy adult volunteers; from tissue; host or cells: plasma of healthy adult volunteers
T1 sequence (P27487 39-766 limits assumed): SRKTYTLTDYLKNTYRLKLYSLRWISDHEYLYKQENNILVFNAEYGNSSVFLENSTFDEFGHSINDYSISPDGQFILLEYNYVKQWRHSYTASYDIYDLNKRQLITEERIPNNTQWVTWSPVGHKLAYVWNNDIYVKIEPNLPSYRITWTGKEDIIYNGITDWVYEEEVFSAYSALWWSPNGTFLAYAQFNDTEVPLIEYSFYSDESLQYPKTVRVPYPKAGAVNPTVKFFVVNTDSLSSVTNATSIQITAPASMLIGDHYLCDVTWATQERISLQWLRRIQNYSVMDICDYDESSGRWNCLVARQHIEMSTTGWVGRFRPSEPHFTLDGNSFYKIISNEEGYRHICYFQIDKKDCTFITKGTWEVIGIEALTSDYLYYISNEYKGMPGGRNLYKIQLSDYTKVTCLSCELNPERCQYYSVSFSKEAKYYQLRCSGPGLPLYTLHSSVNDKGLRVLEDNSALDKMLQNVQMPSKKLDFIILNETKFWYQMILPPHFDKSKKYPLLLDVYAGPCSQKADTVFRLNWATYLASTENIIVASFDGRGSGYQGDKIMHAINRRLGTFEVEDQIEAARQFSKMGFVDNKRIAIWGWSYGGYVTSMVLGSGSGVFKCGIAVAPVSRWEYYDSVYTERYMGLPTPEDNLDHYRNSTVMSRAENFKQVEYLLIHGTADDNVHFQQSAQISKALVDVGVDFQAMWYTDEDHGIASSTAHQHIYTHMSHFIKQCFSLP
Procedure: (1) Test for Determination of DPP-IV Inhibiting Activity:
The reaction was performed in a 96-well flat-bottom microtiter plate. A varying concentration of the test compound was added to an aqueous solution comprised of 25 mM Tris-HCl, 140 mM sodium chloride, 10 mM potassium chloride, 1% RIA-grade bovine serum albumin, and 0.01 mM Gly-Pro-AMC (Bachem). To this reaction solution (95 μL/well), added was 5 μL of plasma collected from healthy adult volunteers, and incubated at room temperature for 20 minutes. […] The data of 3 wells under the same conditions were averaged.
The inhibition in the test group, relative to the solvent-added group was calculated, and the IC50 value thereof was obtained through logistic analysis.

plasma DPP-IV [1] = target: T2, plasma DPP-IV (Mus musculus, UniProt P28843); experiment: Test for DPP-IV inhibiting activity duration in mice; assay type: in vivo; settings: po
T2 construct: The collected blood was immediately centrifuged to isolate the plasma; from tissue; host or cells: plasma of male ICR mice (Nippon SLC)
T2 sequence (P28843 37-760 limits assumed): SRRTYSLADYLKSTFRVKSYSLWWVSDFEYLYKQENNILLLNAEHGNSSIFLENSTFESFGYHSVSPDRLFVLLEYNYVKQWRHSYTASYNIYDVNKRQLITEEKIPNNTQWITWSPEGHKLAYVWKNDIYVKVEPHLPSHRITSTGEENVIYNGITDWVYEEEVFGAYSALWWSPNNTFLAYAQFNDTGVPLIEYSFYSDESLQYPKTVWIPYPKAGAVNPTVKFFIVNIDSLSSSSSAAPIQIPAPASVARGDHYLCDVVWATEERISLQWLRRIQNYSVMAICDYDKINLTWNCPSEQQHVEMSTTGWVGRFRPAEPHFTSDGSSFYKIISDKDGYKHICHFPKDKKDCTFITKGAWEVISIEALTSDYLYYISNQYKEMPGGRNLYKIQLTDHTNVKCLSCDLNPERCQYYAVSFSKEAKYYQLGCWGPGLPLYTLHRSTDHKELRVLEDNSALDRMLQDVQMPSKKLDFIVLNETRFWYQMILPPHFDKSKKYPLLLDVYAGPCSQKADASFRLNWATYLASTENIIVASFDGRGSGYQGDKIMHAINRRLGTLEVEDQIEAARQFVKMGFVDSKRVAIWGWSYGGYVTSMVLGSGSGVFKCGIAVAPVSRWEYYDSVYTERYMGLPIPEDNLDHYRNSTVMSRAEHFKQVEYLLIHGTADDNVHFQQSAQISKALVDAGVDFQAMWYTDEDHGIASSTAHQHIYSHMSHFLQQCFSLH
Procedure: (2) Test for DPP-IV Inhibiting Activity Duration in Mice:
(§1) Male ICR mice (Nippon SLC) were grouped into a test group and a control group of 5 subjects each. A test compound (10 mg/kg) was dissolved in purified water, and orally administered. Purified water alone was orally administered to the mice of the control group. One half, 6, and 12 hours after the administration, the blood was collected from each mouse through the orbital venous plexus thereof. The collected blood was immediately centrifuged to isolate the plasma, and the DPP-IV activity of the plasma was measured.
(§2) The process of plasma DPP-IV activity determination was as follows: The reaction was performed in a 96-well plate. 5 μl of the collected plasma was added to an aqueous solution (95 μl/well) comprises 25 mM Tris-HCl, 140 mM sodium chloride, 10 mM potassium chloride, 1% bovine serum albumin, and 0.01 mM Gly-Pro-AMC (Bachem), and incubated at room temperature for 20 minutes.
(§3) The fluorescent intensity of the well, to which was added the plasma collected from the control group, was 100%. Based on it, the DPP-IV activity of the plasma collected from the test compound-administered mice was calculated, and the activity difference between the control group and the test group was obtained. This indicated the inhibition in the test group.

plasma DPP-IV [2] = target: T3, plasma DPP-IV (Rattus norvegicus, UniProt P14740); experiment: Test for DPP-IV inhibiting activity duration in rats; assay type: in vivo; settings: po
T3 construct: The collected blood was immediately centrifuged to isolate the plasma; from tissue; host or cells: plasma of male SD rats (Clea Japan)
T3 sequence (P14740 37-767 limits assumed): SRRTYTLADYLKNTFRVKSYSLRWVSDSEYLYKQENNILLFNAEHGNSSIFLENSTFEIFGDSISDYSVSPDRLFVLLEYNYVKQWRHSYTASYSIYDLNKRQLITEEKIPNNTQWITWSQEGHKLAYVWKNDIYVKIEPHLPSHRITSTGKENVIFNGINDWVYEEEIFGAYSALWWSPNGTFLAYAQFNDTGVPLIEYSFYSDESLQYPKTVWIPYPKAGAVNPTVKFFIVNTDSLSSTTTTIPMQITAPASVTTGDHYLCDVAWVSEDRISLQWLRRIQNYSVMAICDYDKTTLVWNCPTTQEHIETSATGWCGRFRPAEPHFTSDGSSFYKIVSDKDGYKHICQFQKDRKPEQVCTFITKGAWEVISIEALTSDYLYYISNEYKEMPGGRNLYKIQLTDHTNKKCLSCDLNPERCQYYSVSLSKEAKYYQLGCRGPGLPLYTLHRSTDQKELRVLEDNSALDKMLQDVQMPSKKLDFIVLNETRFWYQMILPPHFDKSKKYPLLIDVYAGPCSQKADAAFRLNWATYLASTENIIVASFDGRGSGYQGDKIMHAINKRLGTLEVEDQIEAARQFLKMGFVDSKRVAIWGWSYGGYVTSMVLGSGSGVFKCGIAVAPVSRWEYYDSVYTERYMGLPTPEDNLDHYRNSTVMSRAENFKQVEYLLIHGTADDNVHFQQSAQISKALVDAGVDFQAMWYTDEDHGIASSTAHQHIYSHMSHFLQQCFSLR
Procedure: as §2
(3) Test for DPP-IV Inhibiting Activity Duration in Rats:
as §1, with “SD rats (Clea Japan)” for “ICR mice (Nippon SLC)”, “rats” for “mice”, “rat” for “mouse”, “tail vein” for “orbital venous plexus”, “measured according to the same process as in the dipeptidyl peptidase-IV (DPP-IV) inhibiting activity duration test shown in (2).” for “measured.”
as §3, with “rats” for “mice”

[3] = plasma from healthy adult volunteers, 0.01 mM Gly-Pro-AMC, room temperature, 20 minutes, read-out: IC50 (DPP-IV inhibiting activity)
[4] = male ICR mice, 10 mg/kg orally, 12 h after administration, relative to control group, read-out: inhibition of plasma DPP-IV activity after 12 h
[5] = read-out: inhibition of plasma DPP-IV activity after 6 h, male ICR mice, 10 mg/kg orally, 6 h after administration, relative to control group
[6] = male SD rats, 10 mg/kg orally, 12 h after administration, relative to control group, read-out: inhibition of plasma DPP-IV activity after 12 h
[7] = read-out: inhibition of plasma DPP-IV activity after 6 h, male SD rats, 10 mg/kg orally, 6 h after administration, relative to control group
[8] = read-out: inhibition of plasma DPP-IV activity after 6 h
[9] = read-out: inhibition of plasma DPP-IV activity after 12 h

Compound	IC50 (DPP-IV; [3]) [nM]	inhibition at 10 mg/kg (plasma DPP-IV [1]; [4]) [%]	inhibition at 10 mg/kg (plasma DPP-IV [1]; [5]) [%]	inhibition at 10 mg/kg (plasma DPP-IV [2]; [6]) [%]	inhibition at 10 mg/kg (plasma DPP-IV [2]; [7]) [%]	further results
CS(=O)(=O)N1CCC(NCC(=O)N2C[C@@H](F)C[C@H]2C#N)CC1 [Example 1, (2S,4S)-4-fluoro-1-({[1-(methanesulfonyl)piperidin-4-yl]amino}acetyl)pyrrolidine-2-carbonitrile monofumarate]	4.2	59	74			
N#C[C@@H]1C[C@H](F)CN1C(=O)CNC1CCN(C(=O)N2CCOCC2)CC1 [Example 28]	5.1					
CC1(NCC(=O)N2C[C@@H](F)C[C@H]2C#N)CCN(C(=O)CF)CC1 [Example 41]						IC50 (DPP-IV): 5.9 nM; inhibition at 10 mg/kg (plasma DPP-IV [1]; [8]): 83%; inhibition at 10 mg/kg (plasma DPP-IV [1]; [9]): 78%; inhibition at 10 mg/kg (plasma DPP-IV [2]; [8]): 93%; inhibition at 10 mg/kg (plasma DPP-IV [2]; [9]): 89%
CS(=O)(=O)N1CCC(NCC(=O)N2CCC[C@H]2C#N)CC1 [compound 1, reference compound]				38	65	
COCC(=O)N1CCC(NCC(=O)N2CCC[C@H]2C#N)CC1 [compound 2, reference compound]				55	77	

Second part, led by results:

IC50 (DPP-IV; [3]) [nM]	inhibition at 10 mg/kg (plasma DPP-IV [1]; [4]) [%]	inhibition at 10 mg/kg (plasma DPP-IV [1]; [5]) [%]	inhibition at 10 mg/kg (plasma DPP-IV [2]; [6]) [%]	inhibition at 10 mg/kg (plasma DPP-IV [2]; [7]) [%]	Compound	further results
4.2	61	72			N#C[C@@H]1C[C@H](F)CN1C(=O)CNC1CCN(C=O)CC1 [Example 19]	
6	71	78			N#C[C@@H]1C[C@H](F)CN1C(=O)CNC1CCN(C(=O)CO)CC1 [Example 21]	
8.2	79	85	94	96	CC1(NCC(=O)N2C[C@@H](F)C[C@H]2C#N)CCN(C(=O)CO)CC1 [Example 34]	
7.5	78	81	86	92	CC1(NCC(=O)N2C[C@@H](F)C[C@H]2C#N)CCN(C=O)CC1 [Example 36]	
			45	80	COC(C)S(=O)(=O)N1CCC(C)(NCC(=O)N2C[C@@H](F)C[C@H]2C#N)CC1 (stereo partly shown) [compound 3, reference compound]	
